The subject of this test is BDF1 mice, B16 melanoma ip, median survival T/C. Kind of test: NCI In Vivo Anticancer Drug Screen. Data for tumor model B16 Melanoma (intraperitoneal) in B6D2F1 (BDF1) mice. The conditions noted are these: endpoint: median survival time, higher = longer survival. A digest of the protocol: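 In this screen, activity was judged from survival or tumor size in treated versus vehicle-treated tumor-bearing mice, reported as T/C.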

Setting [1] is: dose: 50.0 mg/kg/injection, schedule: Q01DX009 (ip), vehicle: saline with Tween-80.
Setting [2] is: dose: 100.0 mg/kg/injection, schedule: Q01DX009 (ip), vehicle: saline with Tween-80.
[3] abbreviates: dose: 12.5 mg/kg/injection, schedule: Q01DX009 (ip), vehicle: saline with Tween-80.
The mark [4] stands for this setting: dose: 25.0 mg/kg/injection, schedule: Q01DX009 (ip), vehicle: saline with Tween-80.
Where [5] appears, read: dose: 6.25 mg/kg/injection, schedule: Q01DX009 (ip), vehicle: saline.
[6] abbreviates: dose: 12.5 mg/kg/injection, schedule: Q01DX009 (ip), vehicle: saline.
Where [7] appears, read: dose: 25.0 mg/kg/injection, schedule: Q01DX009 (ip), vehicle: saline.
Where [8] appears, read: dose: 50.0 mg/kg/injection, schedule: Q01DX009 (ip), vehicle: saline.
Setting [9] is: dose: 100.0 mg/kg/injection, schedule: Q01DX009 (ip), vehicle: saline.
[10] abbreviates: dose: 100.0 mg/kg/injection, schedule: Q01DX009 (ip), vehicle: Klucel (hydroxypropylcellulose) (HPC).

Several values for one entry are separate records, joined by “and”; a condition that tells them apart may be missing. Identical values can stand only once. Inconclusive results and toxic doses are left out. Square brackets hold non-standard residues; d marks the D form. Peptide text beside a SMILES is read from it. * marks the point of attachment. ξ: configuration not given here. Cbz = O=C(OCc1ccccc1)*; ξNle = CCCCC(N)C(=O)O

With `COc1ccc2c(c1[N+](=O)[O-])CC[C@@H]1[C@@H]2CC[C@]2(C)C(=O)CC[C@@H]12`, the T/C was 87 % of control under setting [1] and 89 % of control under setting [2].
`C[C@]12CC[C@H](O)C[C@@]1(O)CC[C@@H]1[C@@H]2CC[C@]2(C)[C@@H](c3ccc(=O)oc3)CC[C@]12O`: the T/C runs as follows: (dose: 1.25 mg/kg/injection, schedule: Q01DX009 (ip), vehicle: Klucel (hydroxypropylcellulose) (HPC)) 94 % of control; (dose: 2.5 mg/kg/injection, schedule: Q01DX009 (ip), vehicle: Klucel (hydroxypropylcellulose) (HPC)) 92 % of control; (dose: 5.0 mg/kg/injection, schedule: Q01DX009 (ip), vehicle: Klucel (hydroxypropylcellulose) (HPC)) 92 % of control; (dose: 10.0 mg/kg/injection, schedule: Q01DX009 (ip), vehicle: Klucel (hydroxypropylcellulose) (HPC)) 94 % of control; under setting [3], 96 % of control; (dose: 20.0 mg/kg/injection, schedule: Q01DX009 (ip), vehicle: Klucel (hydroxypropylcellulose) (HPC)) 94 % of control. The T/C by setting is: under setting [4], 94 % of control; under setting [1], 92 % of control.
As to `CN(C)CCN(Cc1ccccc1)c1ccccc1`, the T/C reads like this: (dose: 25.0 mg/kg/injection, schedule: Q04DX003 (ip), vehicle: Klucel (hydroxypropylcellulose) (HPC)) 95 % of control; (dose: 50.0 mg/kg/injection, schedule: Q04DX003 (ip), vehicle: Klucel (hydroxypropylcellulose) (HPC)) 89 % of control.
`CCc1occ(C(=O)OC)c1C(=O)OC`: the T/C (dose: 100.0 mg/kg/injection, schedule: Q04DX003 (ip), vehicle: saline with Tween-80) was 102 % of control; the T/C (dose: 200.0 mg/kg/injection, schedule: Q04DX003 (ip), vehicle: saline with Tween-80) was 97 % of control; the T/C (dose: 400.0 mg/kg/injection, schedule: Q04DX003 (ip), vehicle: saline with Tween-80) is 95 % of control.
`CC(C)=CCNc1ncnc2c1ncn2C1OC(CO)C(O)C1O` (centres undefined): the T/C (dose: 6.25 mg/kg/injection, schedule: Q01DX009 (ip), vehicle: saline with Tween-80) is 102 % of control; the T/C under setting [5] is 101 % of control; the T/C under setting [3] is 103 % of control; the T/C under setting [6] is 96 % of control; the T/C under setting [4] is 87 % of control and 107 % of control; the T/C under setting [7] was 103 % of control. Moreover, the T/C is 87 % of control and 98 % of control under setting [1]; 93 % of control under setting [8]; 97 % of control under setting [2]; 115 % of control under setting [9].
In the case of `CCCCCCCC(=O)OCC(=O)[C@]1(O)Cc2c(O)c3c(c(O)c2[C@@H](OC2CC(N)C(O)C(C)O2)C1)C(=O)c1c(OC)cccc1C3=O` (some centres undefined), the T/C is, setting by setting: (dose: 0.25 mg/kg/injection, schedule: Q01DX009 (ip), vehicle: saline with Tween-80) 176 % of control; (dose: 0.5 mg/kg/injection, schedule: Q01DX009 (ip), vehicle: saline with Tween-80) 222 % of control; (dose: 1.0 mg/kg/injection, schedule: Q01DX009 (ip), vehicle: saline with Tween-80) 151 % of control and 212 % of control; (dose: 1.25 mg/kg/injection, schedule: Q01DX001 (ip), vehicle: water) 170 % of control; (dose: 2.0 mg/kg/injection, schedule: Q01DX009 (ip), vehicle: saline with Tween-80) 150 % of control and 274 % of control; (dose: 2.5 mg/kg/injection, schedule: Q01DX001 (ip), vehicle: water) 117 % of control (2×) and 214 % of control. The T/C was 97 % of control and 252 % of control (dose: 5.0 mg/kg/injection, schedule: Q01DX001 (ip), vehicle: water); 227 % of control (dose: 10.0 mg/kg/injection, schedule: Q01DX001 (ip), vehicle: water); 122 % of control (dose: 20.0 mg/kg/injection, schedule: Q01DX001 (ip), vehicle: water); 115 % of control (dose: 1440.0 micrograms/kg/injection, schedule: Q01DX004 (ip), vehicle: other); 110 % of control (dose: 2400.0 micrograms/kg/injection, schedule: Q01DX004 (ip), vehicle: other); 122 % of control (dose: 4000.0 micrograms/kg/injection, schedule: Q01DX004 (ip), vehicle: other).
On to `COc1cc(OC)c(OC)cc1/C=C\c1ccnc2ccccc12`, for which the T/C is, setting by setting: under setting [9], 97 % of control; (dose: 200.0 mg/kg/injection, schedule: Q01DX009 (ip), vehicle: saline) 105 % of control; (dose: 400.0 mg/kg/injection, schedule: Q01DX009 (ip), vehicle: saline) 107 % of control; (dose: 800.0 mg/kg/injection, schedule: Q01DX009 (ip), vehicle: saline) 102 % of control.
Regarding `CCCCC(NC(=O)OCc1ccccc1)C(=O)NCC(=O)OC` (centres undefined) (Cbz-[ξNle]-Gly-OMe), the T/C is 96 % of control under setting [1]; 115 % of control under setting [2]; 112 % of control (dose: 200.0 mg/kg/injection, schedule: Q01DX009 (ip), vehicle: saline with Tween-80); 92 % of control (dose: 400.0 mg/kg/injection, schedule: Q01DX009 (ip), vehicle: saline with Tween-80).
As for `CC(C)(C)OC(=O)NC(CCCCNC(=O)OCc1ccccc1)C(=O)O` (centres undefined), the T/C was 107 % of control under setting [1] and 90 % of control under setting [2].
Consider `[Cl][Hg][c]1ccc2ccccc2c1`, for which the T/C is 108 % of control (dose: 1.5 mg/kg/injection, schedule: Q01DX009 (ip), vehicle: gum acacia); 95 % of control (dose: 3.0 mg/kg/injection, schedule: Q01DX009 (ip), vehicle: gum acacia); 95 % of control (dose: 6.0 mg/kg/injection, schedule: Q01DX009 (ip), vehicle: gum acacia); 96 % of control (dose: 12.5 mg/kg/injection, schedule: Q01DX009 (ip), vehicle: gum acacia).
As to `CCCCC[C@H](CN(C)C)[C@H](O)/C=C/c1ccc(Cl)cc1`, the T/C runs as follows: under setting [5], 95 % of control; under setting [6], 100 % of control; under setting [7], 104 % of control.
In the case of `COC12[C@@H]3N[C@@H]3CN1C1=C(C(=O)C(NCCSSCCNC3=C(C)C(=O)C4=C(C3=O)C(COC(N)=O)[C@]3(OC)C5N[C@@H]5CN43)=C(C)C1=O)[C@@H]2COC(N)=O` (some centres undefined), the T/C (dose: 0.2 mg/kg/injection, schedule: Q04DX003 (ip), vehicle: other) is 168 % of control; the T/C (dose: 0.4 mg/kg/injection, schedule: Q04DX003 (ip), vehicle: other) is 241 % of control; the T/C (dose: 0.8 mg/kg/injection, schedule: Q04DX003 (ip), vehicle: other) was 295 % of control; the T/C (dose: 1.5 mg/kg/injection, schedule: Q04DX003 (ip), vehicle: saline with Tween-80) is 184 % of control; the T/C (dose: 1.6 mg/kg/injection, schedule: Q04DX003 (ip), vehicle: other) is 295 % of control; the T/C (dose: 3.0 mg/kg/injection, schedule: Q04DX003 (ip), vehicle: saline with Tween-80) was 197 % of control. In addition, the T/C by setting is: (dose: 3.2 mg/kg/injection, schedule: Q04DX003 (ip), vehicle: other) 295 % of control; (dose: 6.0 mg/kg/injection, schedule: Q04DX003 (ip), vehicle: saline with Tween-80) 288 % of control; (dose: 6.4 mg/kg/injection, schedule: Q04DX003 (ip), vehicle: other) 295 % of control; (dose: 12.0 mg/kg/injection, schedule: Q04DX003 (ip), vehicle: saline with Tween-80) 288 % of control.
For the molecule `CC(=O)OC(C)C(=O)C(Cl)(Cl)Cl` (centres undefined), the T/C reads like this: under setting [10], 96 % of control; (dose: 200.0 mg/kg/injection, schedule: Q01DX009 (ip), vehicle: Klucel (hydroxypropylcellulose) (HPC)) 107 % of control; (dose: 400.0 mg/kg/injection, schedule: Q01DX009 (ip), vehicle: Klucel (hydroxypropylcellulose) (HPC)) 107 % of control.
In the case of `CCC(Br)C(=O)Nc1c(C)cccc1Cl` (centres undefined), the T/C by setting is: (dose: 25.0 mg/kg/injection, schedule: Q01DX009 (ip), vehicle: Klucel (hydroxypropylcellulose) (HPC)) 106 % of control; (dose: 50.0 mg/kg/injection, schedule: Q01DX009 (ip), vehicle: Klucel (hydroxypropylcellulose) (HPC)) 93 % of control; under setting [10], 93 % of control.
On to `C/C=C1/CC(C)C(C)(O)C(=O)OCC2CCN3CCC(OC1=O)C23` (centres undefined), for which the T/C under setting [6] was 109 % of control, the T/C under setting [7] was 109 % of control, the T/C under setting [8] was 102 % of control and the T/C under setting [9] is 107 % of control.

These data come from PubChem BioAssay AID192 (DTP/NCI, 2004).
